Measurements from US12534748B2, “Engineered beta-subunit of tryptophan synthase for production of non-canonical amino acids” (California Institute of Technology, priority 2015, dated 2026).
Where a chain is given by its changes, count along the chain named. Where “and” joins values, the source holds several entries; their conditions need not be identical. Equal values may be shown once.

Columns and labels:
[1] = target: T1, Pyrococcus furiosus TrpB variant PfTrpB^0B2 (P12L, E17G, I68V, T292S, F274S, T321A), SEQ ID NO: 12 (Pyrococcus furiosus, UniProt Q8U093, E17G/F274S/I68V/P12L/T292S/T321A); assay: Tryptophan formation from L-serine and indole, kinetics of PfTrpB^0B2
T1 sequence (Q8U093 with tags, fused parts or gaps P12L/E17G/I68V/F274S/T292S/T321A): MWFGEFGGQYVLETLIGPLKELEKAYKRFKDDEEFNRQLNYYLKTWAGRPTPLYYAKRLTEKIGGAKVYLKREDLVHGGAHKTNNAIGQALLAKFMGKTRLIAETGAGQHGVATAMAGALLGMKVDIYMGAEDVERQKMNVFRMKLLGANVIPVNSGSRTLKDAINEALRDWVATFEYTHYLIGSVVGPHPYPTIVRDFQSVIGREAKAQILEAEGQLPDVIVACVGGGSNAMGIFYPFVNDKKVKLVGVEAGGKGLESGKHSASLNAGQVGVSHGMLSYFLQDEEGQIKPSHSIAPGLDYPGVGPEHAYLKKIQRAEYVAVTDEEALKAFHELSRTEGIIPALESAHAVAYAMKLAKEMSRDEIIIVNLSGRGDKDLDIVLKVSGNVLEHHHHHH
Experimental: (§1) Cloning, Expression, and Purification of PfTrpA and PfTrpB. The genes encoding PfTrpB (UNIPROT ID Q8U093) and PfTrpA (UNIPROT ID Q8U094) were obtained as gBlocks and cloned into pET22(b)+ for expression in E. coli BL21 E. cloni EXPRESS cells (Lucigen). Heterologous protein expression of PfTrpA and PfTrpB was performed in Terrific Broth with 100 μg/mL ampicillin (TBamp) and induced with 500 mM IPTG (final concentration 1 mM). PfTrpB was purified via a HisTrap HP column. PfTrpA was purified via a Q HP HiTrap column (flow-through), followed by ammonium sulfate precipitation, and hydrophobic interaction chromatography on a phenyl Sepharose HP HiTrap column (FIG. 3).
(§2) Kinetics and UV-Vis Spectroscopy.
PfTrpB^4D11 served as template for a final round of random mutagenesis, for which 1,144 clones were screened.

[2] = target: T2, Pyrococcus furiosus tryptophan synthase complex PfTrpS (PfTrpA + PfTrpB) (Pyrococcus furiosus, UniProt Q8U093); assay: Tryptophan formation from L-serine and indole, kinetics of PfTrpS complex; assay type: biochemical
T2 sequence (Q8U093 with tags, fused parts or gaps): T1 sequence (Q8U093 with tags, fused parts or gaps P12L/E17G/I68V/F274S/T292S/T321A) with L12P, G17E, V68I, S274F, S292T, A321T
T2 sequence (Q8U094 1-248 partner): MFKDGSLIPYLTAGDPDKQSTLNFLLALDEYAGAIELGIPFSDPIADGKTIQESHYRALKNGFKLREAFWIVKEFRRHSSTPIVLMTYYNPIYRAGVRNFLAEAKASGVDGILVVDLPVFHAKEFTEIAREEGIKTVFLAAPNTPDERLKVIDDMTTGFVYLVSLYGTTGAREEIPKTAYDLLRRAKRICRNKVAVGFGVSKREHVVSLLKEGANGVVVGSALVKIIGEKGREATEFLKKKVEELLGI
Experimental: as §1, §2
Selection of the Parent Enzyme, TrpB, from Pyrococcus furiosus.

[3] = target: T3, Pyrococcus furiosus tryptophan synthase beta-subunit PfTrpB, wild type, SEQ ID NO: 2 (Pyrococcus furiosus, UniProt Q8U093); assay: Tryptophan formation from L-serine and indole, kinetics of wild-type PfTrpB; assay type: biochemical; details: 75° C., pH 8.0, Trp formation at 290 nm
T3 sequence (Q8U093 with tags, fused parts or gaps): T1 sequence (Q8U093 with tags, fused parts or gaps P12L/E17G/I68V/F274S/T292S/T321A) with L12P, G17E, V68I, S274F, S292T, A321T
Experimental: as §1
Kinetics and UV-Vis Spectroscopy. Data were collected between 550 and 250 nm on a UV1800 Shimadzu spectrophotometer (Shimadzu) using 0.25-20 μM of enzyme in 200 mM potassium phosphate (pH 8.0) in a quartz cuvette. Samples were incubated at 75° C. for >3 min to ensure a stable temperature was reached. PfTrpB activity (kcat) was measured by monitoring tryptophan formation at 290 nm using Δe290=1.89 mM^−1·cm^−1.
Selection of the Parent Enzyme, TrpB, from Pyrococcus furiosus. […]

SMILES: c1ccc2[nH]ccc2c1 [indole]
- kcat ([1]; 75° C.): 2.9 s⁻¹
- kcat increase ([1]; relative to PfTrpB): 9.4 fold
- kcat ([2]; 75° C.): 1.0 s⁻¹
- increase in catalytic efficiency for indole upon complexation ([2]; PfTrpS relative to PfTrpB): 12 fold
- Km ([2]; read-out: KM, indole, 75° C.): 20 µM
- kcat [3]: 0.31 s⁻¹ and 0.31 ± 0.02 s⁻¹
